Measurements published in ChEMBL document CHEMBL4196065, “Design and synthesis of new hybrids from 2-cyano-3,12-dioxooleana- 9-dien-28-oic acid and O2-(2,4-dinitrophenyl) diazeniumdiolate for intervention of drug-resistant lung cancer” (Eur J Med Chem, 2018).
pIC50: −log10 of the molar value. Active and inactive are the calls of the source. The rule behind the calls is not given here.

Legend:
A549/TR [1] = assay: Antiproliferative activity against human A549/TR cells after 72 hrs by MTT assay; assay type: functional, cell-based
[2] = Resistant factor, ratio of IC50 for human A549/TR cells to IC50 for human A549 cells; assay type: functional
A549 = assay: cells; details: Homo sapiens, A549, 72 h
Description: Antiproliferative activity against human A549 cells after 72 hrs by MTT assay

A549/TR [3] = assay: Induction of nitric oxide production in human A549/TR cells at 50 uM after 6 hrs by Griess assay; assay type: functional, cell-based
MRC5 [4] = assay: Induction of nitric oxide production in human MRC5 cells at 50 uM after 6 hrs by Griess assay; assay type: cell-based; details: mrc5, 6 h
A549/TR [5] = assay: Induction of ROS generation in human A549/TR cells at 2.4 to 9.6 uM after 24 hrs by DCFH-DA dye-based flow cytometric analysis; assay type: functional, cell-based
A549/TR [6] = assay: Downregulation of Lon expression in human A549/TR cells at 4.8 uM after 24 hrs by Western blot analysis; assay type: functional, cell-based
A549/TR [7] = assay: Induction of apoptosis in human A549/TR cells assessed as viable cells at 1.2 uM after 24 hrs by Annexin-V-FITC/propidium iodide staining-based flow cytometric analysis (reference value: 95.1%); assay type: functional; details: read-out: Activity
A549/TR [8] = assay: Induction of apoptosis in human A549/TR cells assessed as early apoptotic cells at 1.2 uM after 24 hrs by Annexin-V-FITC/propidium iodide staining-based flow cytometric analysis (reference value: 3.42%); assay type: functional
A549/TR [9] = assay: Induction of apoptosis in human A549/TR cells assessed as late apoptotic cells at 1.2 uM after 24 hrs by Annexin-V-FITC/propidium iodide staining-based flow cytometric analysis (reference value: 1.24%); assay type: functional
A549/TR [10] = assay: Induction of apoptosis in human A549/TR cells assessed as necrotic cells at 1.2 uM after 24 hrs by Annexin-V-FITC/propidium iodide staining-based flow cytometric analysis (reference value: 0.22%); assay type: functional
A549/TR [11] = assay: Induction of apoptosis in human A549/TR cells assessed as viable cells at 2.4 uM after 24 hrs by Annexin-V-FITC/propidium iodide staining-based flow cytometric analysis (reference value: 95.1%); assay type: functional; details: read-out: Activity
A549/TR [12] = assay: Induction of apoptosis in human A549/TR cells assessed as early apoptotic cells at 2.4 uM after 24 hrs by Annexin-V-FITC/propidium iodide staining-based flow cytometric analysis (reference value: 3.42%); assay type: functional
A549/TR [13] = assay: Induction of apoptosis in human A549/TR cells assessed as late apoptotic cells at 2.4 uM after 24 hrs by Annexin-V-FITC/propidium iodide staining-based flow cytometric analysis (reference value: 1.24%); assay type: functional
A549/TR [14] = assay: Induction of apoptosis in human A549/TR cells assessed as necrotic cells at 2.4 uM after 24 hrs by Annexin-V-FITC/propidium iodide staining-based flow cytometric analysis (reference value: 0.22%); assay type: functional
A549/TR [15] = assay: Induction of apoptosis in human A549/TR cells assessed as viable cells at 4.8 uM after 24 hrs by Annexin-V-FITC/propidium iodide staining-based flow cytometric analysis (reference value: 95.1%); assay type: functional; details: read-out: Activity
A549/TR [16] = assay: Induction of apoptosis in human A549/TR cells assessed as early apoptotic cells at 4.8 uM after 24 hrs by Annexin-V-FITC/propidium iodide staining-based flow cytometric analysis (reference value: 3.42%); assay type: functional
A549/TR [17] = assay: Induction of apoptosis in human A549/TR cells assessed as late apoptotic cells at 4.8 uM after 24 hrs by Annexin-V-FITC/propidium iodide staining-based flow cytometric analysis (reference value: 1.24%); assay type: functional
A549/TR [18] = assay: Induction of apoptosis in human A549/TR cells assessed as necrotic cells at 4.8 uM after 24 hrs by Annexin-V-FITC/propidium iodide staining-based flow cytometric analysis (reference value: 0.22%); assay type: functional
A549/TR [19] = assay: Cell cycle arrest in human A549/TR cells assessed as accumulation at G0/G1 phase at 1.2 uM after 24 hrs by propidium iodide/RNase-staining based flow cytometric analysis (reference value: 62.5%); assay type: functional
A549/TR [20] = assay: Cell cycle arrest in human A549/TR cells assessed as accumulation at G2/M phase at 1.2 uM after 24 hrs by propidium iodide/RNase-staining based flow cytometric analysis (reference value: 24.7%); assay type: functional
A549/TR [21] = assay: Cell cycle arrest in human A549/TR cells assessed as accumulation at G0/G1 phase at 2.4 uM after 24 hrs by propidium iodide/RNase-staining based flow cytometric analysis (reference value: 62.5%); assay type: functional
A549/TR [22] = assay: Cell cycle arrest in human A549/TR cells assessed as accumulation at G2/M phase at 2.4 uM after 24 hrs by propidium iodide/RNase-staining based flow cytometric analysis (reference value: 24.7%); assay type: functional
A549/TR [23] = assay: Cell cycle arrest in human A549/TR cells assessed as accumulation at G0/G1 phase at 4.8 uM after 24 hrs by propidium iodide/RNase-staining based flow cytometric analysis (reference value: 62.5%); assay type: functional
A549/TR [24] = assay: Cell cycle arrest in human A549/TR cells assessed as accumulation at G2/M phase at 4.8 uM after 24 hrs by propidium iodide/RNase-staining based flow cytometric analysis (reference value: 24.7%); assay type: functional
A549/TR [25] = assay: Antiproliferative activity against human A549/TR cells at 1 uM after 72 hrs by MTT assay; assay type: functional
A549/TR [26] = assay: Induction of ROS generation in human A549/TR cells after 24 hrs by DCFH-DA dye-based flow cytometric analysis; assay type: functional, cell-based
[27] = Potency index, ratio of taxol IC50 to compound IC50 for antiproliferative activity against human A549/TR cells; assay type: functional
MRC5 [28] = assay: Antiproliferative activity against human MRC5 cells after 72 hrs by MTT assay; assay type: cell-based; details: MRC5, 72 h
A549/TR [29] = assay: Growth inhibition of human A549/TR cells at 1 uM after 72 hrs in presence of GSTpi inhibitor etacrynic acid by MTT assay; assay type: functional
A549/TR [30] = assay: Growth inhibition of human A549/TR cells at 1 uM after 72 hrs in presence of ROS scavenger NAC by MTT assay; assay type: functional
A549/TR [31] = assay: Growth inhibition of human A549/TR cells at 1 uM after 72 hrs in presence of NO scavenger hemoglobin by MTT assay; assay type: functional
A549/TR [32] = assay: Downregulation of Lon expression in human A549/TR cells after 24 hrs by Western blot analysis; assay type: functional, cell-based
A549/TR [33] = assay: Induction of apoptosis in human A549/TR cells after 24 hrs by Annexin-V-FITC/propidium iodide staining-based flow cytometric analysis; assay type: functional, cell-based
A549/TR [34] = assay: Cell cycle arrest in human A549/TR cells after 24 hrs by propidium iodide/RNase-staining based flow cytometric analysis; assay type: functional

Row | pIC50 (A549/TR [1]) | pIC50 (A549) | SMILES | Ratio IC50 [2] | Activity (A549/TR [3]) | Activity (MRC5 [4]) | viability at 1.2 µM (A549/TR [7]) [%] | Activity (A549/TR [8]) [%] | Activity (A549/TR [9]) [%] | Activity (A549/TR [10]) [%] | viability at 2.4 µM (A549/TR [11]) [%] | Activity (A549/TR [12]) [%] | Activity (A549/TR [13]) [%] | Activity (A549/TR [14]) [%] | viability at 4.8 µM (A549/TR [15]) [%] | Activity (A549/TR [16]) [%] | Activity (A549/TR [17]) [%] | Activity (A549/TR [18]) [%] | Activity (A549/TR [19]) [%] | Activity (A549/TR [20]) [%] | Activity (A549/TR [25]) [%] | further results
1 | 5.51 | 8.15 | CC(=O)O[C@H]1C(=O)[C@@]2(C)[C@H]([C@H](OC(=O)c3ccccc3)[C@]3(O)C[C@H](OC(=O)[C@H](O)[C@@H](NC(=O)c4ccccc4)c4ccccc4)C(C)=C1C3(C)C)[C@]1(OC(C)=O)CO[C@@H]1C[C@@H]2O [PACLITAXEL] | 445 | – | – | – | – | – | – | – | – | – | – | – | – | – | – | – | – | – | –
2 | 5.77 | 5.68 | COC(=O)[C@]12CCC(C)(C)C[C@H]1[C@H]1C(=O)C=C3[C@@]4(C)C=C(C#N)C(=O)C(C)(C)[C@@H]4CC[C@@]3(C)[C@]1(C)CC2 [BARDOXOLONE METHYL] | 0.8 | inactive | Non-Toxic | 94.9 | 4.06 | 0.8 | 0.14 | 91.8 | 6.14 | 1.95 | 0.13 | 83.4 | 7.36 | 3.03 | 0.17 | 62.3 | 24.9 | – | Activity (A549/TR [5]): Active; Activity (A549/TR [6]): Active; Activity (A549/TR [21]): 54.7%; Activity (A549/TR [22]): 32.1%; Activity (A549/TR [23]): 47.4%; Activity (A549/TR [24]): 39.4%
3 | 5.96 | 5.84 | C[C@H](N)C(=O)OCCN(C)/[N+]([O-])=N/Oc1cc(NCCOC(=O)[C@]23CCC(C)(C)C[C@H]2[C@H]2C(=O)C=C4[C@@]5(C)C=C(C#N)C(=O)C(C)(C)[C@@H]5CC[C@@]4(C)[C@]2(C)CC3)c([N+](=O)[O-])cc1[N+](=O)[O-] | 0.8 | – | – | – | – | – | – | – | – | – | – | – | – | – | – | – | – | >50 | –
4 | 6.09 | 5.84 | CN(CCO)/[N+]([O-])=N/Oc1cc(NCCOC(=O)[C@]23CCC(C)(C)C[C@H]2[C@H]2C(=O)C=C4[C@@]5(C)C=C(C#N)C(=O)C(C)(C)[C@@H]5CC[C@@]4(C)[C@]2(C)CC3)c([N+](=O)[O-])cc1[N+](=O)[O-] | 0.6 | – | – | – | – | – | – | – | – | – | – | – | – | – | – | – | – | >50 | –
5 | 6.03 | 5.97 | CC1(C)CC[C@]2(C(=O)N3CCN(c4cc(O/N=[N+](\[O-])N5CCOCC5)c([N+](=O)[O-])cc4[N+](=O)[O-])CC3)CC[C@]3(C)[C@H](C(=O)C=C4[C@@]5(C)C=C(C#N)C(=O)C(C)(C)[C@@H]5CC[C@]43C)[C@@H]2C1 | 0.9 | – | – | – | – | – | – | – | – | – | – | – | – | – | – | – | – | >50 | –
6 | 6.46 | 5.97 | CN(CCO)/[N+]([O-])=N/Oc1cc(N2CCN(C(=O)[C@]34CCC(C)(C)C[C@H]3[C@H]3C(=O)C=C5[C@@]6(C)C=C(C#N)C(=O)C(C)(C)[C@@H]6CC[C@@]5(C)[C@]3(C)CC4)CC2)c([N+](=O)[O-])cc1[N+](=O)[O-] | 0.3 | Active | Toxic | 91.6 | 5.11 | 3.09 | 0.27 | 70 | 12.8 | 14.4 | 2.78 | 59.7 | 15.8 | 21.4 | 3.15 | 61.3 | 28.3 | >50 | Activity (A549/TR [26]): Dose-dependent effect; Ratio IC50 [27]: 10; pIC50 (MRC5 [28]): 5.79; growth inhibition (GI) (A549/TR [29]): inactive; growth inhibition (GI) (A549/TR [30]): inactive; growth inhibition (GI) (A549/TR [31]): inactive; Activity (A549/TR [32]): Dose-dependent effect; Activity (A549/TR [33]): Dose-dependent effect; Activity (A549/TR [21]): 47.9%; Activity (A549/TR [22]): 38.9%; Activity (A549/TR [23]): 39.4%; Activity (A549/TR [24]): 48.3%; Activity (A549/TR [34]): Dose-dependent effect
7 | 6.16 | 5.97 | C[C@H](N)C(=O)OCCN(C)/[N+]([O-])=N/Oc1cc(N2CCN(C(=O)[C@]34CCC(C)(C)C[C@H]3[C@H]3C(=O)C=C5[C@@]6(C)C=C(C#N)C(=O)C(C)(C)[C@@H]6CC[C@@]5(C)[C@]3(C)CC4)CC2)c([N+](=O)[O-])cc1[N+](=O)[O-] | 0.7 | – | – | – | – | – | – | – | – | – | – | – | – | – | – | – | – | >50 | –

Row | SMILES | pIC50 (A549/TR [1]) | pIC50 (A549) | Ratio IC50 [2] | Activity (A549/TR [3]) | Activity (MRC5 [4]) | viability at 1.2 µM (A549/TR [7]) [%] | Activity (A549/TR [8]) [%] | Activity (A549/TR [9]) [%] | Activity (A549/TR [10]) [%] | viability at 2.4 µM (A549/TR [11]) [%] | Activity (A549/TR [12]) [%] | Activity (A549/TR [13]) [%] | Activity (A549/TR [14]) [%] | viability at 4.8 µM (A549/TR [15]) [%] | Activity (A549/TR [16]) [%] | Activity (A549/TR [17]) [%] | Activity (A549/TR [18]) [%] | Activity (A549/TR [19]) [%] | Activity (A549/TR [20]) [%] | Activity (A549/TR [25]) [%] | further results
8 | CCOC(=O)N1CCN(/[N+]([O-])=N/Oc2ccc([N+](=O)[O-])cc2[N+](=O)[O-])CC1 | 5.70 | 5.64 | 0.9 | Active | Toxic | 90.5 | 6.75 | 2.38 | 0.34 | 92.1 | 5.63 | 1.94 | 0.37 | 87 | 7.76 | 4.19 | 1.04 | 65.3 | 24.5 | – | Activity (A549/TR [5]): Active; Activity (A549/TR [6]): Active; Activity (A549/TR [21]): 54.4%; Activity (A549/TR [22]): 32%; Activity (A549/TR [23]): 47.7%; Activity (A549/TR [24]): 38.7%
